The record followed here is patent US20210100247A1, “HARMFUL ORGANISM CONTROL METHOD AND HARMFUL ORGANISM CONTROL COMPOSITION” (priority 2018, published 2021).

Several values for one entry are separate records, joined by “and”; a condition that tells them apart may be missing. Equal values may be shown once.

The test system of the data set is Tetranychus urticae. Briefly: whole plant or invertebrate. Particulars: for Corrected Adult Insect Mortality Rate Measured Value: adults, 3 days after spraying; for Effectiveness Measured Value: next generation survivors, 10 days after spraying. The procedure: Effecacy Confirmation Test on Tetranychus urticae
Eight or ten adult female Tetranychus urticae mites were inoculated on the kidney bean leaves placed in petri dishes on the day before treating with the chemical solutions.
A flowable agent containing the compound A was diluted with a solution obtained by diluting Rabiden 3S 5,000 times in water to prepare a chemical solution A containing the compound A in which the concentration of the compound A is twice the concentration shown in Tables 1 to 4.
A preparation product containing the compound B was diluted with a solution obtained by diluting Rabiden 3S 5,000 times in water to prepare a chemical solution B containing the compound B in which the concentration of the compound B is twice the concentration shown in Tables 1 to 4.
Test number a: Tebufenpyrad: Pyranica EW (manufactured by Nippon Soda Co., Ltd.) Test numbers b and h: Hexythiazox: Nissolan wettable powder (manufactured by Nippon Soda Co., Ltd.) Test number c: Fenpyroximate: Danitron flowable (manufactured by Nippon Pesticides Co., Ltd.) Test number d: Propargite: Omite wettable powder (manufactured by Nippon Pesticides Co., Ltd.) Test number e: Tolfenpyrad: Hachi-Hachi flowable (manufactured by OAT Agrio) Test number f: Abamectin: Agrimec (manufactured by Syngenta Japan) Test number g: Etoxazole: Baroque flowable (manufactured by Kyoyu Agri co., Ltd.) Test number i: Thiodicarb: Lavin wettable powder 75 (manufactured by Bayer Crop Science) Test number j: Spinosad: Spinoace granule wettable powder (Kumiai Chemical Industry Co., Ltd.) Test number k: Isoxathion: Carphos emulsion (manufactured by Nippon Soda Co., Ltd.) Test number l: Acetamiprid: Mospilan water-soluble agent (manufactured by Nippon Soda Co., Ltd.) Test number m: Fipronil: Prince flowable (manufactured by BASF) Test number n: Tralomethrin: Scout flowable agent (manufactured by Nippon Soda Co., Ltd.) Test number o: BT agent (live spore of Bacillus thuringiensis and crystal toxin produced): Zentari granule wettable powder (manufactured by Kitako Chemical Industry Co., Ltd.) Test number p: Buprofezin: Applaud flowable (manufactured by Nippon Pesticides Co., Ltd.) Test number q: Cyromazine: Triggered liquid (manufactured by Syngenta Japan) Test number r: Tebufenozide: Romdan Flowable (manufactured by Nippon Soda Co., Ltd.) Test number s: Flubendiamide: Phoenix granule wettable powder (Nippon Agricultural Co., Ltd.) Test number t: Pyridalyl: pleo flowable (manufactured by Kyoto Agri) Test number u: Lufenuron: Match emulsion (manufactured by Syngenta Japan) Test number v: Flonicamid: Ulala DF (made by Ishihara Bioscience) Test number w: Chlorfenapyr: Kotetsu Flowable (Nippon Pesticides Co., Ltd.) Test number x: Indoxacarb: Tornado flowable (made by Kumiai Chemical Industry Co., Ltd.) Test number y: Diafenthiuron: Gamba wettable powder (manufactured by Syngenta Japan) Test number z: Thiocyclam: Ebisect wettable powder (manufactured by Mitsui Chemicals Agro) Test number aa: Emamectin-benzoate: Affirm emulsion (Syndienta Japan) Test number ab: Pyridaben: Sanmite wettable powder (manufactured by Nissan Chemical Co., Ltd.)
A mixed solution obtained by mixing equal amounts of the chemical solution A and the chemical solution B was sprayed onto a petri dish containing kidney bean leaves inoculated with Tetranychus urticae mites at an amount of 2 mg per cm^2 using a rotary spray tower (AB mixed-component area).
The chemical solution A and the chemical solution B were each diluted 2-fold with a solution obtained by diluting Labiden 3S 5000 times in water to obtain a chemical solution A′ and a chemical solution B′.
The chemical solution A′ was sprayed onto another petri dish containing kidney bean leaves inoculated with Tetranychus urticae mites at an amount of 2 mg per cm^2 using a rotary spray tower (A single-component area).

Setting [1] is: Tetranychus urticae, in Phaseolus vulgaris, 240 h, read-out: Effectiveness Measured Value.

In the case of `CCOCn1c(-c2ccc(Cl)cc2)c(C#N)c(Br)c1C(F)(F)F` [chlorfenapyr], under setting [1], the pest or weed control at 50 µg/mL amounted to 46%. spinosad: for the setting “single component 40 ppm”, the “Corrected Adult Insect Mortality Rate Measured Value” is 0% and the “Effectiveness Measured Value” amounted to 0%. Regarding `N#Cc1nn(-c2c(Cl)cc(C(F)(F)F)cc2Cl)c(N)c1[S+]([O-])C(F)(F)F` (stereo not drawn) [fipronil], the pest or weed control at 22 µg/mL under setting [1] came out at 2%. Regarding `CCc1ccc(C(=O)NN(C(=O)c2cc(C)cc(C)c2)C(C)(C)C)cc1` [tebufenozide], under setting [1], the pest or weed control at 200 µg/mL turned out to be 10%. In the case of `COC(=O)N(C(=O)N1CO[C@@]2(C(=O)OC)Cc3cc(Cl)ccc3C2=N1)c1ccc(OC(F)(F)F)cc1` [indoxacarb], for the setting “single component 50 ppm”, the “Corrected Adult Insect Mortality Rate Measured Value” worked out at 0% and the “Effectiveness Measured Value” came to 0%.

On to `CC(C)(C)c1ccc(CSc2cnn(C(C)(C)C)c(=O)c2Cl)cc1` [pyridaben], for which, under setting [1], the pest or weed control at 200 µg/mL is 0%. As for `C[C@@H]1[C@@H](c2ccc(Cl)cc2)SC(=O)N1C(=O)NC1CCCCC1` [hexythiazox], under setting [1], the pest or weed control at 1.6 µg/mL was found to be 42% and the pest or weed control at 12.5 µg/mL was found to be 90%.

For `CN(C)C1CSSSC1` [thiocyclam], the pest or weed control at 500 µg/mL under setting [1] worked out at 18%. For `C/C(=N\C#N)N(C)Cc1ccc(Cl)nc1` [acetamiprid], the pest or weed control at 100 µg/mL under setting [1] was 7%. As to `CC1(C)[C@H](C(=O)O[C@H](C#N)c2cccc(Oc3ccccc3)c2)[C@@H]1C(Br)C(Br)(Br)Br` (stereo partly drawn) [tralomethrin], under setting [1], the pest or weed control at 9.3 µg/mL is 1%. With `CCOP(=S)(OCC)Oc1cc(-c2ccccc2)on1` [isoxathion], the pest or weed control at 500 µg/mL under setting [1] was determined as 50%. `O=C(NC(=O)c1c(F)cccc1F)Nc1cc(Cl)c(OC(F)(F)C(F)C(F)(F)F)cc1Cl` (stereo not drawn) [lufenuron]: under setting [1], the pest or weed control at 100 µg/mL came out at 14%. On the same count and under the same terms, the result for `CCc1nn(C)c(C(=O)NCc2ccc(C(C)(C)C)cc2)c1Cl` [tebufenpyrad] reads 64%. With `CCOc1cc(C(C)(C)C)ccc1C1COC(c2c(F)cccc2F)=N1` (stereo not drawn) [etoxazole], the pest or weed control at 1.6 µg/mL under setting [1] was found to be 85%. `CCCOc1cc(C(F)(F)F)ccc1O[C@H]1C[C@H]2CCC[C@@H](C1)N2Oc1ccc(C(F)(F)F)cn1` [acynonapyr, 3-endo-[2-propoxy-4-(trifluoromethyl)phenoxy]-9-[5-(trifluoromethyl)-2-pyridyloxy]-9-azabicyclo[3.3.1] nonan]: under “single component 2.0 ppm”, the “Effectiveness Measured Value” was 49% and 51% and 60% and 68% and 46%. As for `Nc1nc(N)nc(NC2CC2)n1` [cyromazine], the pest or weed control at 87 µg/mL under setting [1] stood at 8%. Regarding `CS/C(C)=N\OC(=O)N(C)SN(C)C(=O)O/N=C(\C)SC` [thiodicarb], the pest or weed control at 750 µg/mL under setting [1] was determined as 0%.

With `CC(C)N1C(=O)N(c2ccccc2)CS/C1=N\C(C)(C)C` [buprofezin], the pest or weed control at 200 µg/mL under setting [1] was determined as 17%. Take abamectin: where the note is “single component 0.017 ppm”, the “Corrected Adult Insect Mortality Rate Measured Value” amounted to 0% and the “Effectiveness Measured Value” is 11%.

For `CCc1nn(C)c(C(=O)NCc2ccc(Oc3ccc(C)cc3)cc2)c1Cl` [tolfenpyrad], the pest or weed control at 150 µg/mL under setting [1] was determined as 4%.

Consider `C#CCOS(=O)OC1CCCCC1Oc1ccc(C(C)(C)C)cc1` (stereo not drawn) [propargite], for which, under setting [1], the pest or weed control at 40 µg/mL was determined as 18%. With `FC(F)(F)c1ccc(OCCCOc2c(Cl)cc(OCC=C(Cl)Cl)cc2Cl)nc1` [pyridalyl], the pest or weed control at 100 µg/mL under setting [1] came out at 11%. On to `N#CCNC(=O)c1cnccc1C(F)(F)F` [flonicamid], for which, under “single component 100 ppm”, the “Corrected Adult Insect Mortality Rate Measured Value” is 0% and the “Effectiveness Measured Value” is recorded as 3%. Regarding `CC(C)c1cc(Oc2ccccc2)cc(C(C)C)c1NC(=S)NC(C)(C)C` [diafenthiuron], the pest or weed control at 25 µg/mL under setting [1] amounted to 7%. On to `Cc1nn(C)c(Oc2ccccc2)c1C=NOCc1ccc(C(=O)OC(C)(C)C)cc1` [fenpyroximate], for which the pest or weed control at 50 µg/mL under setting [1] turned out to be 28%. As for emamectin-benzoate, for the setting “single component 0.02 ppm”, the “Corrected Adult Insect Mortality Rate Measured Value” is given as 40% and the “Effectiveness Measured Value” stood at 17%.

Regarding `Cc1cc(C(F)(C(F)(F)F)C(F)(F)F)ccc1NC(=O)c1cccc(I)c1C(=O)NC(C)(C)CS(C)(=O)=O` [flubendiamide], under setting [1], the pest or weed control at 100 µg/mL came out at 3%.
